Target: T1, AR (Homo sapiens, UniProt P10275, T878A)
T1 construct: into the androgen-dependent PCa cells (LNCaP); endogenous in cells; host or cells: LNCaP-ARR2PB-eGFP
T1 sequence (P10275 1-920 T878A): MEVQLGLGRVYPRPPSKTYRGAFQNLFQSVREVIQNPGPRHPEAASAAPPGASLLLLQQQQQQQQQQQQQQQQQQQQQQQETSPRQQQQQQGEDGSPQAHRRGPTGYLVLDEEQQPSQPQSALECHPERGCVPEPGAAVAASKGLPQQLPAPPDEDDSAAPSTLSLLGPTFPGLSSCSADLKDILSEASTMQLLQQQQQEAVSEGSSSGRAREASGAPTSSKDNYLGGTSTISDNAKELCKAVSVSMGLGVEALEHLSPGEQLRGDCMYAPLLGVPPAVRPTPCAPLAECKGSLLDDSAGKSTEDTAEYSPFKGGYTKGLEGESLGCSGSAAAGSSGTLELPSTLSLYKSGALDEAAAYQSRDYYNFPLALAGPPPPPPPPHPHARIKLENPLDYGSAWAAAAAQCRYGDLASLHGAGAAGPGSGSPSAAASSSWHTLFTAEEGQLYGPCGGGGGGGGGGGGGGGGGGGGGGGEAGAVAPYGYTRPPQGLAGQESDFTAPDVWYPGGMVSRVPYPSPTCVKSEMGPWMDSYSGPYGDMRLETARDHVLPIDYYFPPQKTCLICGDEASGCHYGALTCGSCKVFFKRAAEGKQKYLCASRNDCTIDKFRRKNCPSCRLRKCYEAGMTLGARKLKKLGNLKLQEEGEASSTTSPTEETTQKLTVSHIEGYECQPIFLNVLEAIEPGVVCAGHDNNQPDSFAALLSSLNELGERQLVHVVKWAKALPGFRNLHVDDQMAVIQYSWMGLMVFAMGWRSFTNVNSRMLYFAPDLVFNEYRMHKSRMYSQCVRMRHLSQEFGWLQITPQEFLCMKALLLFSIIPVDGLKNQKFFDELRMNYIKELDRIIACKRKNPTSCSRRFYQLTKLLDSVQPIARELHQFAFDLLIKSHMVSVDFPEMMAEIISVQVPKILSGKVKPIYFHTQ
Experiment: AR transcriptional activity, LNCaP-ARR2PB-eGFP reporter cells
Assay type: cell-based
Settings: read-out: IC50 AR transcriptional activities
Description: Detection principles: We conducted a stable transfection of promoter ARR2PB known for its strong AR responsiveness, into the androgen-dependent PCa cells (LNCaP). The expression of enhanced green fluorescent protein (eGFP) is depending on the degree of activation of AR. Therefore, LNCaP-ARR2PB-eGFP cell line could quantitatively determine the AR antagonistic activities of the compounds by evaluating the expression of eGFP.

Structure (SMILES)	IC50 [µM]
O=C(Nc1nc(CCl)ns1)c1csc(-c2cccc(C(F)(F)F)c2)c1 [Compound D-40, N-(3-(chloromethyl)-1,2,4-thiadiazol-5-yl)-5-(3-(trifluoromethyl)phenyl)thiophene-3-carboxamide]	21.5
Cc1oc(-c2cccc(C(F)(F)F)c2)cc1C(=O)Nc1nc(CN(C)C)ns1 [Compound A-106, N-(3-((dimethylamino)methyl)-1,2,4-thiadiazol-5-yl)-2-methyl-5-(3-(trifluoromethyl)phenyl)furan-3-carboxamide]	1.67
N#Cc1cccc(-c2coc(C(=O)Nc3nc(CN4CCCCC4)ns3)c2)c1 [Compound G-25, 4-(3-Cyanophenyl)-N-(3-(piperidin-1-ylmethyl)-1,2,4-thiadiazol-5-yl)furan-2-carboxamide]	19.8
CC(Cc1nsc(NC(=O)c2coc(-c3cccc(C(F)(F)F)c3)c2)n1)N(C)C (stereo not shown) [Compound B-6, N-(3-(2-(dimethylamino)propyl)-1,2,4-thiadiazol-5-yl)-5-(3-(trifluoromethyl)phenyl) furan-3-carboxamide]	11.8
Cc1oc(-c2cccc(OC(F)(F)F)c2)cc1C(=O)Nc1nc(CN2CCCC2)ns1 [Compound A-124, 2-Methyl-N-(3-(pyrrolidin-1-ylmethyl)-1,2,4-thiadiazol-5-yl)-5-(3-(trifluoromethoxy)phenyl)furan-3-carboxamide]	0.04
COc1cccc(-c2cc(C(=O)Nc3nc(CC(C)=O)ns3)c(C)o2)c1 [Compound A-4, 5-(3-Methoxyphenyl)-2-methyl-N-(3-(2-oxopropyl)-1,2,4-thiadiazol-5-yl)furan-3-carboxamide]	0.35
CC(=O)Cc1nsc(NC(=O)c2coc(-c3cccc(OC(F)(F)F)c3)c2)n1 [Compound B-4, N-(3-(2-oxopropyl)-1,2,4-thiadiazol-5-yl)-5-(3-(trifluoromethoxy)phenyl)furan-3-carboxamide]	32.5
CC(Cc1nsc(NC(=O)c2cc(-c3cccc(C(F)(F)F)c3)oc2C)n1)=C(F)F [Compound A-80, N-(3-(3,3-difluoro-2-methylallyl)-1,2,4-thiadiazol-5-yl)-2-methyl-5-(3-(trifluoromethyl)phenyl)furan-3-carboxamide]	0.81
COC(=O)c1cccc(-c2cc(C(=O)Nc3nc(CC(C)=O)ns3)c(C)o2)c1 [Compound A-30, Methyl 3-(5-methyl-4-((3-(2-oxopropyl)-1,2,4-thiadiazol-5-yl)carbamoyl)furan-2-yl)benzoate]	5.19
CC(=O)Cc1nsc(NC(=O)c2cc(-c3cccc(OC(F)F)c3)oc2C)n1 [Compound A-14, 5-(3-(Difluoromethoxy)phenyl)-2-methyl-N-(3-(2-oxopropyl)-1,2,4-thiadiazol-5-yl)furan-3-carboxamide]	0.05
CC(=O)Cc1nsc(NC(=O)c2cc(-c3cccc(C(F)(F)F)c3)oc2C(F)(F)F)n1 [Compound E-1, N-(3-(2-oxopropyl)-1,2,4-thiadiazol-5-yl)-2-(trifluoromethyl)-5-(3-(trifluoro-methyl)phenyl)furan-3-carboxamide]	1.06
COc1cccc(-c2cc(C(=O)Nc3nc(CC(C)=O)ns3)cs2)c1 [Compound D-3, 5-(3-Methoxyphenyl)-N-(3-(2-oxopropyl)-1,2,4-thiadiazol-5-yl)thiophene-3-carboxamide]	13.6
Cc1oc(-c2cccc(C(F)(F)F)c2)cc1C(=O)Nc1nc(CC(C)(C)N)ns1 [Compound A-93, N-(3-(2-amino-2-methylpropyl)-1,2,4-thiadiazol-5-yl)-2-methyl-5-(3-(trifluoromethyl)phenyl)furan-3-carboxamide]	0.03
CC(=O)Cc1nsc(NC(=O)c2cc(-c3cccc(C#N)c3)c(C)o2)n1 [Compound F-2, 4-(3-Cyanophenyl)-5-methyl-N-(3-(2-oxopropyl)-1,2,4-thiadiazol-5-yl)furan-2-carboxamide]	34.3
CC(=O)Cc1nsc(NC(=O)c2cc(-c3cccnc3)oc2C)n1 [Compound A-31, 2-Methyl-N-(3-(2-oxopropyl)-1,2,4-thiadiazol-5-yl)-5-(pyridin-3-yl)furan-3-carboxamide]	6.33
CC(=O)Cc1nsc(NC(=O)c2cc(-c3cccc(F)c3)oc2C)n1 [Compound A-7, 5-(3-Fluorophenyl)-2-methyl-N-(3-(2-oxopropyl)-1,2,4-thiadiazol-5-yl)furan-3-carboxamide]	1.16

Structure (SMILES)	IC50 [µM]
CNC(C)Cc1nsc(NC(=O)c2cc(-c3cccc(C(F)(F)F)c3)oc2C)n1 (stereo not shown) [Compound A-96, 2-Methyl-N-(3-(2-(methylamino)propyl)-1,2,4-thiadiazol-5-yl)-5-(3-(trifluoromethyl)phenyl)furan-3-carboxamide]	0.16
CC(=O)Cc1nsc(NC(=O)c2cc(-c3cccc(OC(C)=O)c3)oc2C)n1 [Compound A-27, 3-(5-Methyl-4-((3-(2-oxopropyl)-1,2,4-thiadiazol-5-yl)carbamoyl)furan-2-yl)phenyl acetate]	5.5
CCN(CC)Cc1nsc(NC(=O)c2cc(-c3cccc(C(F)(F)F)c3)oc2C)n1 [Compound A-107, N-(3-((diethylamino)methyl)-1,2,4-thiadiazol-5-yl)-2-methyl-5-(3-(trifluoromethyl)phenyl)furan-3-carboxamide]	1.77
CCN(CC)Cc1nsc(NC(=O)c2coc(-c3cccc(OC)c3)c2)n1 [Compound B-50, N-(3-((diethylamino)methyl)-1,2,4-thiadiazol-5-yl)-5-(3-methoxyphenyl)furan-3-carboxamide]	22.9
CN1CCN(Cc2nsc(NC(=O)c3cc(-c4cccc(OC(F)(F)F)c4)co3)n2)CC1 [Compound G-27]	26.2
CCN(CC)C(C)Cc1nsc(NC(=O)c2cc(-c3cccc(C(F)(F)F)c3)oc2C)n1 (stereo not shown) [Compound A-39, N-(3-(2-(diethylamino)propyl)-1,2,4-thiadiazol-5-yl)-2-methyl-5-(3-(trifluoromethyl)phenyl)furan-3-carboxamide]	0.12
Cc1oc(-c2cccc(C(F)(F)F)c2)cc1C(=O)Nc1nc(CCl)ns1 [Compound A-105, N-(3-(chloromethyl)-1,2,4-thiadiazol-5-yl)-2-methyl-5-(3-(trifluoromethyl)phenyl)furan-3-carboxamide]	22.9
O=C(Nc1nc(CN2CCCC2)ns1)c1csc(-c2cccc(OC(F)(F)F)c2)c1 [Compound D-53, N-(3-(pyrrolidin-1-ylmethyl)-1,2,4-thiadiazol-5-yl)-5-(3-(trifluoromethoxy)phenyl)thiophene-3-carboxamide]	27.3
CN(C)Cc1nsc(NC(=O)c2csc(-c3cccc(C#N)c3)c2)n1 [Compound D-47, 5-(3-Cyanophenyl)-N-(3-((dimethylamino)methyl)-1,2,4-thiadiazol-5-yl)thiophene-3-carboxamide]	25.3
CN1CCN(Cc2nsc(NC(=O)c3coc(-c4cccc(OC(F)F)c4)c3)n2)CC1 [Compound B-58, 5-(3-(Difluoromethoxy)phenyl)-N-(3-((4-methylpiperazin-1-yl)methyl)-1,2,4-thiadiazol-5-yl)furan-3-carboxamide]	32.6
Cc1oc(C(=O)Nc2nc(CC(C)(F)F)ns2)cc1-c1cccc(OC(F)(F)F)c1 [Compound F-17, N-(3-(2,2-difluoropropyl)-1,2,4-thiadiazol-5-yl)-5-methyl-4-(3-(trifluoromethoxy)phenyl)furan-2-carboxamide]	25
CC(=O)Cc1nsc(NC(=O)c2cc(-c3cccc(C#N)c3)co2)n1 [Compound G-2, 4-(3-Cyanophenyl)-N-(3-(2-oxopropyl)-1,2,4-thiadiazol-5-yl)furan-2-carboxamide]	35.5
Cc1oc(-c2cccc(C#N)c2)cc1C(=O)Nc1nc(CC(C)N2CCOCC2)ns1 (stereo not shown) [Compound A-52, 5-(3-Cyanophenyl)-2-methyl-N-(3-(2-morpholinopropyl)-1,2,4-thiadiazol-5-yl)furan-3-carboxamide]	0.76
Cc1oc(-c2cccc(C(F)(F)F)c2)cc1C(=O)Nc1nc(CN2CCN(C)CC2)ns1 [Compound A-111, 2-Methyl-N-(3-((4-methylpiperazin-1-yl)methyl)-1,2,4-thiadiazol-5-yl)-5-(3-(trifluoro-methyl)phenyl)furan-3-carboxamide]	0.57
O=C(Nc1nc(CN2CCCC2)ns1)c1cc(-c2cccc(OC(F)(F)F)c2)oc1C(F)(F)F [Compound E-40, N-(3-(pyrrolidin-1-ylmethyl)-1,2,4-thiadiazol-5-yl)-5-(3-(trifluoromethoxy)phenyl)-2-(trifluoromethyl)furan-3-carboxamide]	2.92

Source: patent US20240376091A1, “THIADIAZOLEAMIDE DERIVATIVES AND THEIR APPLICATIONS” (ZHEJIANG UNIVERSITY, priority 2021, published 2024)
